This test in a line: Inhibition of [3H]- pentazocine binding against guinea pig brain Sigma opioid receptor type 1.

In general, IC50 refers to the midpoint of a concentration-inhibition curve. Low readings indicate greater potency in that assay, high ones weaker potency in that assay.

`O=C1COc2cc(CN3CCN(c4ccc(Cl)cc4)CC3)ccc2N1` [7-[4-(4-Chloro-phenyl)-piperazin-1-ylmethyl]-4H-benzo[1,4]oxazin-3-one]: the concentration for half-maximal inhibition (IC50) came out at 285 nM.
